Results on 17 compounds are retold here after ChEMBL document CHEMBL5291721, “A preclinical secondary pharmacology resource illuminates target-adverse drug reaction associations of marketed drugs” (Nat Commun, 2023).

In test [1] the target is Beta-3 adrenergic receptor (Homo sapiens, UniProt P13945).
Test [2] deals with T1, Beta-2 adrenergic receptor (Homo sapiens, UniProt P07550).
The target of test [3] is T2, Mu-type opioid receptor (Homo sapiens, UniProt P35372).
Test [4] deals with T3, 5-hydroxytryptamine receptor 1A (Homo sapiens, UniProt P08908).
T3 sequence (P08908 whole entry): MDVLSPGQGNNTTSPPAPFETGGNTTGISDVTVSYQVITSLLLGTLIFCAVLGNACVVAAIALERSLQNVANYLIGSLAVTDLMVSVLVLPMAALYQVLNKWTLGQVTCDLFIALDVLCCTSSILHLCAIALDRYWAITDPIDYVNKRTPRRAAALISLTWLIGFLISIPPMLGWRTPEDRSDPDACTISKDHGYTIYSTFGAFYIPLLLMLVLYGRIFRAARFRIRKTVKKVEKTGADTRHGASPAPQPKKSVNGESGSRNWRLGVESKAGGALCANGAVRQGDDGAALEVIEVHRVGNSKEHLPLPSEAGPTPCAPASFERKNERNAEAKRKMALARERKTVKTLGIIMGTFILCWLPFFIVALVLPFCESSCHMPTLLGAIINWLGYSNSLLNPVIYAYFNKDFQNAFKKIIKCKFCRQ
The test is classed as functional, cell-based.

In the next test the target is Melanocortin receptor 4 (Homo sapiens, UniProt P32245).
Chain of Melanocortin receptor 4 (P32245 whole entry): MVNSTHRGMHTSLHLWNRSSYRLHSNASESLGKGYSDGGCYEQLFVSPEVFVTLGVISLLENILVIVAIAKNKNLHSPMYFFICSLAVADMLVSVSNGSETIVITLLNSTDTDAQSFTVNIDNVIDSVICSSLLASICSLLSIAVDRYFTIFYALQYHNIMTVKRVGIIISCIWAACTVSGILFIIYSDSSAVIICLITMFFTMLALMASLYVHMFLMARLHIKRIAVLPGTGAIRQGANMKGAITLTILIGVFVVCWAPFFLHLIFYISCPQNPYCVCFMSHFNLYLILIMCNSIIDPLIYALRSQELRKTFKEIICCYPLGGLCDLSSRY
The target in another test is T4, Progesterone receptor (Homo sapiens, UniProt P06401).
T4 sequence (P06401 whole entry): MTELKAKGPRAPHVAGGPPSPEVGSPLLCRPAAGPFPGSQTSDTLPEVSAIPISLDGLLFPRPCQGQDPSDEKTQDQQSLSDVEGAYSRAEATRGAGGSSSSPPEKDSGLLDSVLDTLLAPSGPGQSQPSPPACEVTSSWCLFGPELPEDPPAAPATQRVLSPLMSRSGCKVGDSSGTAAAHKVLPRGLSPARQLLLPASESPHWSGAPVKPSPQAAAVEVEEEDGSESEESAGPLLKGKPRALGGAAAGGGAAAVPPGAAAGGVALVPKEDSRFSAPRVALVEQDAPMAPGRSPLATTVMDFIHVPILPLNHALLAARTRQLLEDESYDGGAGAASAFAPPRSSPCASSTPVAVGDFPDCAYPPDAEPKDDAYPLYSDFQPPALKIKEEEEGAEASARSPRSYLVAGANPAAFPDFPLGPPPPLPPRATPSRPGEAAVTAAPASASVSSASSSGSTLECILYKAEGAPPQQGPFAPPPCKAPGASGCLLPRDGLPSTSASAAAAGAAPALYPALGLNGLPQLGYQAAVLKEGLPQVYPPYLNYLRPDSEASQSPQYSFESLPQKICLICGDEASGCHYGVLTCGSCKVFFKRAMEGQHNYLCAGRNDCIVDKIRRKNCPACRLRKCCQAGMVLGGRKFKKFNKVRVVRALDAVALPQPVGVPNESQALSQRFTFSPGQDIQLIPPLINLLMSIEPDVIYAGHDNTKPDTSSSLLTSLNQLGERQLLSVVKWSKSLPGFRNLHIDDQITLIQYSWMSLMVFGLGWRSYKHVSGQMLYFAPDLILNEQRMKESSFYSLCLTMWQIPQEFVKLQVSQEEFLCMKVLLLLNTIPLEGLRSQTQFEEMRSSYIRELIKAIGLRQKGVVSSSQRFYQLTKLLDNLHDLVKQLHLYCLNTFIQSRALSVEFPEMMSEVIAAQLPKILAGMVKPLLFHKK
The test is classed as functional.

Test [5] concerns the target T2, Mu-type opioid receptor. The test can be described thus: biochemical. It is filed as functional.
In test [6] the target is T3, 5-hydroxytryptamine receptor 1A.
Test [7] has as its target T5, Equilibrative nucleoside transporter 1 (Homo sapiens, UniProt Q99808).
T5 sequence (Q99808 whole entry): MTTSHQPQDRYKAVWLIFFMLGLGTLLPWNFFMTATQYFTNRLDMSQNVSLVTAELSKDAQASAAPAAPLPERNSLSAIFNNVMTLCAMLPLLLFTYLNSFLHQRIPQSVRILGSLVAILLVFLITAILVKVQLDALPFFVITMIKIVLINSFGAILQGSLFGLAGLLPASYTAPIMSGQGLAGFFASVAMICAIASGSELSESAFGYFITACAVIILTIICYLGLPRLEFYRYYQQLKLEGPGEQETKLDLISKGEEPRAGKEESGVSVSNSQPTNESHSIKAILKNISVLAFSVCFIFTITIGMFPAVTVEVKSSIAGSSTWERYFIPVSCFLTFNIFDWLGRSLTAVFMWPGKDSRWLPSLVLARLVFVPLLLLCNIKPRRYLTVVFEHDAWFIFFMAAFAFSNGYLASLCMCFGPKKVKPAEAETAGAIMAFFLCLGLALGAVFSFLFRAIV

A further test concerns the target T6, Endothelin-1 receptor (Homo sapiens, UniProt P25101).
T6 sequence (P25101 whole entry): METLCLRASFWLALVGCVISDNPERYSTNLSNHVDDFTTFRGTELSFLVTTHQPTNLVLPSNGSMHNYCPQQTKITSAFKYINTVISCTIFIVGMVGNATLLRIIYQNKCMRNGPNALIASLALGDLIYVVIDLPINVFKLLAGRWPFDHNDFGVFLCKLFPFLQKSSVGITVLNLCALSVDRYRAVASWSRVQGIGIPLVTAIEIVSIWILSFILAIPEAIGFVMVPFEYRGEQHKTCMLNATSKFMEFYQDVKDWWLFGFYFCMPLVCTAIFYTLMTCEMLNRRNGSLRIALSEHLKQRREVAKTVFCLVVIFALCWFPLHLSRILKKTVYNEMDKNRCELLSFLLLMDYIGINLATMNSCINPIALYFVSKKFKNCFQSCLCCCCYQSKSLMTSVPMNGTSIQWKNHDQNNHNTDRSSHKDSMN

Test [8] deals with Muscarinic acetylcholine receptor M3 (Homo sapiens, UniProt P20309).
Chain of Muscarinic acetylcholine receptor M3 (P20309 whole entry): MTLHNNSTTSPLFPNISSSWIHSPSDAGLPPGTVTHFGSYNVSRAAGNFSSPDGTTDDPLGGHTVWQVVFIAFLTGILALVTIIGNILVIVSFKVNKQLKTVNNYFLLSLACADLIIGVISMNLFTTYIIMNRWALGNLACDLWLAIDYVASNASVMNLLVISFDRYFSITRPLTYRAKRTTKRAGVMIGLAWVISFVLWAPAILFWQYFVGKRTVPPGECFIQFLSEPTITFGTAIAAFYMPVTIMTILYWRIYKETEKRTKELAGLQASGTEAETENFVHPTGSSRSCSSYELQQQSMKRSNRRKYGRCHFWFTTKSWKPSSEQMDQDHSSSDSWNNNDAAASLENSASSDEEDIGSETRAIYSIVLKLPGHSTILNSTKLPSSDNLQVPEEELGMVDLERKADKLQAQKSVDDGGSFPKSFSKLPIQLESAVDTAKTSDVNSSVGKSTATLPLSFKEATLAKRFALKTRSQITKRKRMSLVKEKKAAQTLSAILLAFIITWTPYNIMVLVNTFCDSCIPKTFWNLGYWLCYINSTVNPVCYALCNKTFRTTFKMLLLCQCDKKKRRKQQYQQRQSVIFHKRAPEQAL
In test [9] the target is Sodium-dependent serotonin transporter (Homo sapiens, UniProt P31645).
Chain of Sodium-dependent serotonin transporter (P31645 whole entry): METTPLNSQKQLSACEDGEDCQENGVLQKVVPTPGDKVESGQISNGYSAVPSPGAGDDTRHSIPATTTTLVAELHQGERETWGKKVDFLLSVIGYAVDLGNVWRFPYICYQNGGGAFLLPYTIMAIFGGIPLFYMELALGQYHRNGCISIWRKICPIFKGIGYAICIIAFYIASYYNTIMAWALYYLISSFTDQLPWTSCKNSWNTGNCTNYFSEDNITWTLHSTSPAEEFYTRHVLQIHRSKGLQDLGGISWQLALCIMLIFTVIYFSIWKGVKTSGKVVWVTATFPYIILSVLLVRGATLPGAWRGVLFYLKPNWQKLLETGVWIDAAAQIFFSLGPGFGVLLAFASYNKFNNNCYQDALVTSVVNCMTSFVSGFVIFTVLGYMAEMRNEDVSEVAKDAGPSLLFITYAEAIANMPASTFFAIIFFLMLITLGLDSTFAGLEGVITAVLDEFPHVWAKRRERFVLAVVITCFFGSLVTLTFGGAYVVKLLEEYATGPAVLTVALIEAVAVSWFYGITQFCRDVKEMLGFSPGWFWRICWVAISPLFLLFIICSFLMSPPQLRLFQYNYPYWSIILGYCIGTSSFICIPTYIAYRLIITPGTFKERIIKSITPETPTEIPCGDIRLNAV
Test [10] concerns the target T1, Beta-2 adrenergic receptor. It is filed as functional, cell-based.
Test [11] addresses T7, Histamine H1 receptor (Homo sapiens, UniProt P35367). It is filed as functional, cell-based.
Test [12] addresses T7, Histamine H1 receptor. The test is classed as functional, cell-based. This is another data set of the same source.
Further: assay procedure not described here.

T7 sequence (P35367 whole entry): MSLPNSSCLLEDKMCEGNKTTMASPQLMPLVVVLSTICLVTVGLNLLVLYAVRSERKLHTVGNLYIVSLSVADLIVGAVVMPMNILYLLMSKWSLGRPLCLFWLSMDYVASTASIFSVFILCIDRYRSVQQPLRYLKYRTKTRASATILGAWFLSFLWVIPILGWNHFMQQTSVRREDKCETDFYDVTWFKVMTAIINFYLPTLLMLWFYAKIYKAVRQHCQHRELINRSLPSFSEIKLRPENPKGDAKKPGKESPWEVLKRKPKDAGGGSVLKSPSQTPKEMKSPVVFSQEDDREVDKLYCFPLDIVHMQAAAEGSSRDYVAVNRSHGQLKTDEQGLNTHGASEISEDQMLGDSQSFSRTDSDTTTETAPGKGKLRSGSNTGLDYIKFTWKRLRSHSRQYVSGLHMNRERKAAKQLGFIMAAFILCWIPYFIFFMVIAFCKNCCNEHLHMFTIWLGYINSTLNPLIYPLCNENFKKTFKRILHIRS
T1 sequence (P07550 whole entry): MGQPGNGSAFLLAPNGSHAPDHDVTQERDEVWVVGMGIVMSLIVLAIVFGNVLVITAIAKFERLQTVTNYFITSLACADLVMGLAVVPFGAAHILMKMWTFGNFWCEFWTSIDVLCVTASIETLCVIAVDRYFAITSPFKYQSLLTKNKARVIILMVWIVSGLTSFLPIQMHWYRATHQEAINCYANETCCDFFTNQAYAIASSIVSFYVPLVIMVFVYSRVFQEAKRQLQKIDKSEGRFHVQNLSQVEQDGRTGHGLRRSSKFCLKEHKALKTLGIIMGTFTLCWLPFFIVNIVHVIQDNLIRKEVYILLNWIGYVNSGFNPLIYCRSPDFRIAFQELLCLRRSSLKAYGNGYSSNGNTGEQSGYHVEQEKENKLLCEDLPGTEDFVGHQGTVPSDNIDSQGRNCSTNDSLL
T2 sequence (P35372 whole entry): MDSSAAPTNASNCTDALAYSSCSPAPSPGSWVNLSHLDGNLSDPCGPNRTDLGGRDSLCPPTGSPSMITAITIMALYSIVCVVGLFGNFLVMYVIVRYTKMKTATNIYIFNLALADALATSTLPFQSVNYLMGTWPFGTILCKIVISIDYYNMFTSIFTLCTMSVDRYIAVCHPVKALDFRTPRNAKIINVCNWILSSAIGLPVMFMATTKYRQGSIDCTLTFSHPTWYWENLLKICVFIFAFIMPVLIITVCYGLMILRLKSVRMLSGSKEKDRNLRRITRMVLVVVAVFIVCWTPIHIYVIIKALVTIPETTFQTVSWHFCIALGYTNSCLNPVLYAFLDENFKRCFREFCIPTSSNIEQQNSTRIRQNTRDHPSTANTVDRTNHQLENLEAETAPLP
Chain of Beta-3 adrenergic receptor (P13945 whole entry): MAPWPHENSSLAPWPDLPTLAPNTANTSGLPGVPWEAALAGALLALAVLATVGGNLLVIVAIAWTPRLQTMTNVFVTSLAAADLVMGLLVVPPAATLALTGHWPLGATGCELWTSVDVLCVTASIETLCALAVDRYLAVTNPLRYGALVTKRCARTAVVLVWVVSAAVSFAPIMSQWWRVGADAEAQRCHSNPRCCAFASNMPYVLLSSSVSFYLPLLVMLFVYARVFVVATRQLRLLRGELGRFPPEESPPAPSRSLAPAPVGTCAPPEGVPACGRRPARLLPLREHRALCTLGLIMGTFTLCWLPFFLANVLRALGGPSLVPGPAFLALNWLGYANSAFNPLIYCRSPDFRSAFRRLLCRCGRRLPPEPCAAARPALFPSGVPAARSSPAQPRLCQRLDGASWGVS

Consider `N=C(N)NC(=O)c1nc(Cl)c(N)nc1N` [AMILORIDE], for which the AC50 in test [1] was over 30 µM; in [2], over 30 µM; at Mu-type opioid receptor [3], over 10 µM; in [4], 16 µM; on Melanocortin receptor 4, over 30 µM; on Progesterone receptor, over 30 µM. The AC50 at Mu-type opioid receptor [5] is 4 µM; in test [6], over 10 µM; in [7] it was over 30 µM; at Endothelin-1 receptor, over 30 µM.
As for `COc1ccc(-c2cc(=S)ss2)cc1` [ANETHOLTRITHION], the AC50 was over 30 µM in test [8]; 13 µM in test [2]; over 10 µM in [9]; over 30 µM in test [4]; over 30 µM at Mu-type opioid receptor [5]; 5.4 µM in [7]. Also, the half-maximal activity concentration (AC50) on Endothelin-1 receptor was over 10 µM.
As for `CC(C)(C)NCC(O)COc1ccccc1C#N` (stereo not given) [BUNITROLOL], the AC50 (in test [10]; in test [8]; at Mu-type opioid receptor [5]) was over 30 µM each time.
Turning to `C[C@]12CCC(=O)C=C1C=C[C@@H]1[C@@H]2CC[C@@]2(C)[C@H]1CC[C@@]21CCC(=O)O1` [CANRENONE], the AC50 (in test [10]; in test [8]; in test [2]; in test [9]; in test [4]; on Mu-type opioid receptor [5]) was over 30 µM throughout. Further, the half-maximal activity concentration (AC50) (in test [7]; at Endothelin-1 receptor) was over 30 µM in each case.
Take `CN(C)CCC(O)(c1ccccc1)c1ccccc1Cl` (stereo not given) [CHLOPHEDIANOL]: the AC50 in test [8] was over 30 µM; in test [2] it was over 10 µM; on Mu-type opioid receptor [3], over 30 µM; in test [9], over 10 µM; at Melanocortin receptor 4 it was over 10 µM; on Progesterone receptor it was over 10 µM. Besides, in test [7], the AC50 was over 10 µM.
As to `COc1cccc2c1C(=O)c1c(O)c3c(c(O)c1C2=O)C[C@@](O)(C(=O)CO)C[C@@H]3O[C@H]1C[C@H](N)[C@H](O)[C@H](C)O1` [DOXORUBICIN], the AC50 in [10] was over 30 µM; in test [2], over 10 µM; on Mu-type opioid receptor [3] it was over 30 µM; at Melanocortin receptor 4, over 30 µM; on Progesterone receptor it was over 30 µM; in [6], over 10 µM. Moreover, the AC50 (in test [7]; at Endothelin-1 receptor) was over 30 µM throughout.
On to `C[C@]12CCC(=O)C=C1[C@@H]1C[C@@H]1[C@H]1[C@@H]3[C@@H]4C[C@@H]4[C@@]4(CCC(=O)O4)[C@@]3(C)CC[C@@H]12` [DROSPIRENONE], for which the concentration at half-maximal activity (AC50) (in [8]; in test [2]; in test [9]; at Mu-type opioid receptor [5]; in test [7]; at Endothelin-1 receptor) was over 30 µM throughout.
In the case of `CC(C)(Oc1ccc(Cl)cc1)C(=O)OCCOC(=O)c1cccnc1` [ETOFIBRATE], the AC50 (in test [10]; in [8]; in test [2]; in test [9]; on Progesterone receptor; at Mu-type opioid receptor [5]) was over 30 µM throughout. In addition, the half-maximal activity concentration (AC50) (in [7]; on Endothelin-1 receptor) was over 30 µM in each case.
`CC(NCCC(c1ccccc1)c1ccccc1)c1ccccc1` (stereo not given) [FENDILINE] had a concentration at half-maximal activity (AC50) on Mu-type opioid receptor [3] of 0.78 µM.
Take `CCn1c(=O)c2c(nc(/C=C/c3ccc(OC)c(OC)c3)n2C)n(CC)c1=O` [ISTRADEFYLLINE]: the AC50 at Histamine H1 receptor [11], at Progesterone receptor and at Histamine H1 receptor [12] was over 30 µM each time.
Take `COc1ccc(C(=O)c2ccccc2)c(O)c1` [OXYBENZONE]: the AC50 (in [10]; in test [8]; on Mu-type opioid receptor [5]) was over 30 µM throughout.
`C[C@]12C=CC(=O)C=C1CC[C@@H]1[C@@H]2[C@@H](O)C[C@@]2(C)[C@H]1CC[C@]2(O)C(=O)CO` [PREDNISOLONE]: the AC50 is over 30 µM in test [10]; over 30 µM in test [1]; over 10 µM in [2]; over 30 µM on Mu-type opioid receptor [3]; over 10 µM in test [4]; over 30 µM at Melanocortin receptor 4. Also, the AC50 in [6] was over 10 µM; in test [7] it was over 30 µM; at Endothelin-1 receptor, over 30 µM.
With `CCC(=O)c1ccc2c(c1)N(CC(C)N(C)C)c1ccccc1S2` (stereo not given) [PROPIOMAZINE], the concentration at half-maximal activity (AC50) in [8] is 0.18 µM; in test [2], over 10 µM; at Mu-type opioid receptor [3], 14 µM; in [9], over 10 µM; in [4] it was 2.7 µM; on Melanocortin receptor 4, over 10 µM. Further, the AC50 on Progesterone receptor is over 30 µM; in test [7], over 10 µM.
For the compound `CN(C)[C@@H]1C(O)=C(C(=O)NCN2CCCC2)C(=O)[C@@]2(O)C(O)=C3C(=O)c4c(O)cccc4[C@@](C)(O)[C@H]3C[C@@H]12` [ROLITETRACYCLINE], the concentration at half-maximal activity (AC50) in test [8] was over 10 µM; in test [2], over 10 µM; at Mu-type opioid receptor [3], over 30 µM; in [9], over 10 µM; in test [4], over 30 µM; on Melanocortin receptor 4, over 10 µM. In addition, the AC50 at Progesterone receptor was over 30 µM; in test [7], over 10 µM.
Turning to `Cc1ccc(O)c([C@H](CCN(C(C)C)C(C)C)c2ccccc2)c1` [TOLTERODINE], the AC50 is over 30 µM in test [1]; over 10 µM at Mu-type opioid receptor [3]; over 10 µM in test [9]; over 10 µM in test [4]; over 10 µM in test [6].
With `CC1(C)O[C@@H]2C[C@H]3[C@@H]4CCC5=CC(=O)C=C[C@]5(C)[C@@]4(F)[C@@H](O)C[C@]3(C)[C@]2(C(=O)CO)O1` [TRIAMCINOLONE ACETONIDE], the AC50 (in test [4]; at Mu-type opioid receptor [5]; at Endothelin-1 receptor) was over 30 µM each time.
As for `Oc1cc(Cl)ccc1Oc1ccc(Cl)cc1Cl` [TRICLOSAN], the concentration at half-maximal activity (AC50) at Histamine H1 receptor [11] was over 30 µM; in [10], over 30 µM; in [8], over 30 µM; in test [9], over 30 µM; at Progesterone receptor it was 18 µM; on Histamine H1 receptor [12], over 30 µM. Moreover, the concentration at half-maximal activity (AC50) at Mu-type opioid receptor [5] and at Endothelin-1 receptor was over 30 µM throughout.
